Results taken from ChEMBL document CHEMBL3045033, “Synthesis of new potential anticancer agents based on 4-thiazolidinone and oleanane scaffolds” (Med Chem Res, 2012).
Values joined by “and” are separate entries in the source; they are usually repeats but may differ in a detail not shown here. Equal values may be shown once.

Tests used:
Format in all cases: functional
HCT-15 = experiment: Cytotoxicity against Homo sapiens (human) HCT15 cells at 10^-4 to 10^-8 M after 48 hr by SRB assay; conditions: HCT-15, 48 h, read-out: pTGI (converted)
MOLT-4 = experiment: Cytotoxicity against Homo sapiens (human) MOLT4 cells at 10^-4 to 10^-8 M after 48 hr by SRB assay; conditions: MOLT-4, 48 h, read-out: pTGI (converted)
EKVX = experiment: Cytotoxicity against Homo sapiens (human) EKVX cells after 48 hr by SRB assay
COLO 205 [1] = experiment: Cytotoxicity against Homo sapiens (human) COLO205 cells at 10^-4 to 10^-8 M after 48 hr by SRB assay; conditions: COLO 205, 48 h, read-out: pTGI (converted)
COLO 205 [2] = experiment: Cytotoxicity against Homo sapiens (human) COLO205 cells after 48 hr by SRB assay
A549 = experiment: Cytotoxicity against Homo sapiens (human) A549 cells at 10^-4 to 10^-8 M after 48 hr by SRB assay; conditions: A549, 48 h, read-out: pTGI (converted)
NCI-H23 = experiment: Cytotoxicity against Homo sapiens (human) NCI-H23 cells at 10^-4 to 10^-8 M after 48 hr by SRB assay; conditions: NCI-H23, 48 h, read-out: pTGI (converted)
K562 = experiment: Cytotoxicity against Homo sapiens (human) K562 cells at 10^-4 to 10^-8 M after 48 hr by SRB assay; conditions: K562, 48 h, read-out: pTGI (converted)
NCI-H460 = experiment: Cytotoxicity against Homo sapiens (human) NCI-H460 cells at 10^-4 to 10^-8 M after 48 hr by SRB assay; conditions: NCI-H460, 48 h, read-out: pTGI (converted)
SR [3] = experiment: Cytotoxicity against Homo sapiens (human) SR cells at 10^-4 to 10^-8 M after 48 hr by SRB assay; conditions: read-out: pTGI (converted)
SW-620 = experiment: Cytotoxicity against Homo sapiens (human) SW620 cells at 10^-4 to 10^-8 M after 48 hr by SRB assay; conditions: SW-620, 48 h, read-out: pTGI (converted)
M14 [4] = experiment: Cytotoxicity against Homo sapiens (human) M14 cells after 48 hr by SRB assay
ACHN = experiment: Cytotoxicity against Homo sapiens (human) ACHN cells at 10^-4 to 10^-8 M after 48 hr by SRB assay; conditions: read-out: pTGI (converted)
SF-268 = experiment: Cytotoxicity against Homo sapiens (human) SF268 cells at 10^-4 to 10^-8 M after 48 hr by SRB assay; conditions: SF-268, 48 h, read-out: pTGI (converted)
CAKI-1 = experiment: Cytotoxicity against Homo sapiens (human) Caki1 cells at 10^-4 to 10^-8 M after 48 hr by SRB assay; conditions: CAKI-1, 48 h, read-out: pTGI (converted)
SR [5] = experiment: Cytotoxicity against Homo sapiens (human) SR cells after 48 hr by SRB assay
SK-MEL-28 [6] = experiment: Cytotoxicity against Homo sapiens (human) SK-MEL-28 cells after 48 hr by SRB assay
SK-MEL-5 [7] = experiment: Cytotoxicity against Homo sapiens (human) SK-MEL-5 cells after 48 hr by SRB assay
U-251 = experiment: Cytotoxicity against Homo sapiens (human) U251 cells after 48 hr by SRB assay
SNB-75 = experiment: Cytotoxicity against Homo sapiens (human) SNB75 cells after 48 hr by SRB assay
MCF7 = experiment: Cytotoxicity against Homo sapiens (human) MCF7 cells at 10^-4 to 10^-8 M after 48 hr by SRB assay; conditions: MCF7, 48 h, read-out: pTGI (converted)
DU-145 = experiment: Cytotoxicity against Homo sapiens (human) DU145 cells after 48 hr by SRB assay
Hs-578T = experiment: Cytotoxicity against Homo sapiens (human) Hs578T cells at 10^-4 to 10^-8 M after 48 hr by SRB assay; conditions: read-out: pTGI (converted)
UO-31 = experiment: Cytotoxicity against Homo sapiens (human) UO31 cells after 48 hr by SRB assay
RPMI-8226 = experiment: Cytotoxicity against Homo sapiens (human) RPMI8226 cells at 10^-4 to 10^-8 M after 48 hr by SRB assay; conditions: RPMI-8226, 48 h, read-out: pTGI (converted)
SF-295 = experiment: Cytotoxicity against Homo sapiens (human) SF295 cells at 10^-4 to 10^-8 M after 48 hr by SRB assay; conditions: SF-295, 48 h, read-out: pTGI (converted)
SK-OV-3 = experiment: Cytotoxicity against Homo sapiens (human) SKOV3 cells after 48 hr by SRB assay
UACC-62 = experiment: Cytotoxicity against Homo sapiens (human) UACC62 cells at 10^-4 to 10^-8 M after 48 hr by SRB assay; conditions: UACC-62, 48 h, read-out: pTGI (converted)
MDA-MB-231 = experiment: Cytotoxicity against Homo sapiens (human) MDA-MB-231 cells at 10^-4 to 10^-8 M after 48 hr by SRB assay; conditions: MDA-MB-231, 48 h, read-out: pTGI (converted)
SK-MEL-28 [8] = experiment: Cytotoxicity against Homo sapiens (human) SK-MEL-28 cells at 10^-4 to 10^-8 M after 48 hr by SRB assay; conditions: SK-MEL-28, 48 h, read-out: pTGI (converted)
NCI-H226 = experiment: Cytotoxicity against Homo sapiens (human) NCI-H226 cells at 10^-4 to 10^-8 M after 48 hr by SRB assay; conditions: NCI-H226, 48 h, read-out: pTGI (converted)
SK-MEL-5 [9] = experiment: Cytotoxicity against Homo sapiens (human) SK-MEL-5 cells at 10^-4 to 10^-8 M after 48 hr by SRB assay; conditions: SK-MEL-5, 48 h, read-out: pTGI (converted)
TK-10 = experiment: Cytotoxicity against Homo sapiens (human) TK10 cells at 10^-4 to 10^-8 M after 48 hr by SRB assay; conditions: TK-10, 48 h, read-out: pTGI (converted)
M14 [10] = experiment: Cytotoxicity against Homo sapiens (human) M14 cells at 10^-4 to 10^-8 M after 48 hr by SRB assay; conditions: M14, 48 h, read-out: pTGI (converted)
OVCAR-3 = experiment: Cytotoxicity against Homo sapiens (human) OVCAR3 cells at 10^-4 to 10^-8 M after 48 hr by SRB assay; conditions: OVCAR-3, 48 h, read-out: pTGI (converted)
SK-MEL-2 = experiment: Cytotoxicity against Homo sapiens (human) SK-MEL-2 cells at 10^-4 to 10^-8 M after 48 hr by SRB assay; conditions: SK-MEL-2, 48 h, read-out: pTGI (converted)

| SMILES | TGI (HCT-15) | TGI (MOLT-4) | TGI (COLO 205 [1]) | GI50 (COLO 205 [2]; Homo sapiens, COLO 205, 48 h) | TGI (A549) | TGI (NCI-H23) | TGI (K562) | TGI (NCI-H460) | TGI (SR [3]) | TGI (SW-620) | TGI (ACHN) | TGI (SF-268) | TGI (CAKI-1) | TGI (MCF7) | TGI (Hs-578T) | TGI (RPMI-8226) | TGI (SF-295) | TGI (UACC-62) | TGI (MDA-MB-231) | TGI (SK-MEL-28 [8]) | other results |
| --- | --- | --- | --- | --- | --- | --- | --- | --- | --- | --- | --- | --- | --- | --- | --- | --- | --- | --- | --- | --- | --- |
| COC(=O)[C@]12CCC(C)(C)C[C@H]1C1=CC[C@@H]3[C@@]4(C)CC/C(=N\O)C(C)(C)[C@@H]4CC[C@@]3(C)[C@]1(C)CC2 | 55 µM | > 100 µM | 57.5 µM | 22.4 µM | > 100 µM | 38 µM | > 100 µM | 51.3 µM | 55 µM | 40.7 µM | 41.7 µM | 56.2 µM | 47.9 µM | 40.7 µM | 66.1 µM | > 100 µM | 37.2 µM | 56.2 µM | 40.7 µM | 66.1 µM | GI50 (EKVX; Homo sapiens, EKVX, 48 h): 28.2 µM; GI50 (M14 [4]; Homo sapiens, M14, 48 h): 23.4 µM; GI50 (SR [5]; Homo sapiens, SR, 48 h): 26.9 µM; GI50 (SK-MEL-28 [6]; Homo sapiens, SK-MEL-28, 48 h): 24.5 µM; GI50 (SK-MEL-5 [7]; Homo sapiens, SK-MEL-5, 48 h): 21.4 µM; GI50 (U-251; Homo sapiens, U-251, 48 h): 19.1 µM; GI50 (SNB-75; Homo sapiens, SNB-75, 48 h): 18.2 µM; GI50 (DU-145; Homo sapiens, DU-145, 48 h): 20.4 µM; GI50 (UO-31; Homo sapiens, UO-31, 48 h): 22.4 µM; GI50 (SK-OV-3; Homo sapiens, SK-OV-3, 48 h): 40.7 µM; TGI (NCI-H226): 66.1 µM; TGI (SK-MEL-5 [9]): 63.1 µM; TGI (TK-10): 97.7 µM; TGI (M14 [10]): 57.5 µM; TGI (OVCAR-3): 35.5 µM; TGI (SK-MEL-2): > 100 µM |
| COC(=O)[C@]12CCC(C)(C)C[C@H]1C1=CC[C@@H]3[C@@]4(C)CC/C(=N\OC(=O)/C=C5/SC(=O)NC5=O)C(C)(C)[C@@H]4CC[C@@]3(C)[C@]1(C)CC2 | 11 µM | 7.41 µM | 5.37 µM | 2.63 µM | 17.8 µM | 12.3 µM | 8.13 µM | 9.55 µM | 3.89 µM | 3.89 µM | 3.39 µM | 10.7 µM | 16.2 µM | 10.7 µM | 6.76 µM | 6.03 µM | 20.9 µM | 10.2 µM | 7.59 µM | 3.8 µM | GI50 (EKVX): 56.2 µM and 6.76 µM; GI50 (COLO 205 [2]): 3.47 µM; GI50 (M14 [4]): ≥ 20 µM; GI50 (SR [5]): 8.91 µM and 1.7 µM; GI50 (SK-MEL-28 [6]): 7.08 µM and 2.04 µM; GI50 (SK-MEL-5 [7]): 43.7 µM and 5.25 µM; GI50 (U-251): 6.76 µM and 1.78 µM; GI50 (SNB-75): 49 µM and 10.7 µM; GI50 (DU-145): 42.7 µM and 5.13 µM; GI50 (UO-31): 5.75 µM and 1.48 µM; GI50 (SK-OV-3): 61.7 µM and 20 µM; TGI (NCI-H226): 30.9 µM; TGI (SK-MEL-5 [9]): 17.8 µM; TGI (TK-10): 8.13 µM; TGI (M14 [10]): 5.13 µM; TGI (OVCAR-3): 3.47 µM; TGI (SK-MEL-2): 17.8 µM |
| CC1(C)CC[C@@]23CC[C@]4(C)[C@@](OC2=O)([C@@H]3C1)[C@@H](Br)C[C@@H]1[C@@]2(C)CC/C(=N\O)C(C)(C)[C@@H]2CC[C@]14C | > 100 µM | > 100 µM | > 100 µM | 91.2 µM | > 100 µM | > 100 µM | > 100 µM | > 100 µM | 7.94 µM | > 100 µM | > 100 µM | > 100 µM | > 100 µM | 60.3 µM | 24.5 µM | > 100 µM | 36.3 µM | > 100 µM | 47.9 µM | > 100 µM | GI50 (EKVX; Homo sapiens, EKVX, 48 h): 91.2 µM; GI50 (M14 [4]; Homo sapiens, M14, 48 h): 9.12 µM; GI50 (SR [5]; Homo sapiens, SR, 48 h): 2.14 µM; GI50 (SK-MEL-28 [6]; Homo sapiens, SK-MEL-28, 48 h): 43.7 µM; GI50 (SK-MEL-5 [7]; Homo sapiens, SK-MEL-5, 48 h): 26.3 µM; GI50 (U-251; Homo sapiens, U-251, 48 h): 22.4 µM; GI50 (SNB-75; Homo sapiens, SNB-75, 48 h): 20.4 µM; GI50 (DU-145; Homo sapiens, DU-145, 48 h): 14.1 µM; GI50 (UO-31; Homo sapiens, UO-31, 48 h): 40.7 µM; GI50 (SK-OV-3; Homo sapiens, SK-OV-3, 48 h): 30.9 µM; TGI (NCI-H226): > 100 µM; TGI (SK-MEL-5 [9]): > 100 µM; TGI (TK-10): 52.5 µM; TGI (M14 [10]): > 100 µM; TGI (OVCAR-3): 49 µM; TGI (SK-MEL-2): > 100 µM |
